Measured values: paper PMC3823594, “Conformational Changes Underlying Pore Dilation in the Cytoplasmic Domain of Mammalian Inward Rectifier K^+ Channels” (PLoS ONE, 2013)
Numbering of substitutions follows the chain as printed.

Tests used:
Assay in all cases: Two-electrode voltage clamp, ACh-dependent (m2R-dependent) K+ current activation
Type in all cases: cell-based
Kir3.2 E236Q = target: T1, Kir3.2 E236Q (Mus musculus, UniProt P48542, E236Q); settings: Kir3.2 E236Q with porcine m2R in Xenopus oocytes; −120 mV; Hill equation fit
T1 sequence (P48542 19-425 E236Q): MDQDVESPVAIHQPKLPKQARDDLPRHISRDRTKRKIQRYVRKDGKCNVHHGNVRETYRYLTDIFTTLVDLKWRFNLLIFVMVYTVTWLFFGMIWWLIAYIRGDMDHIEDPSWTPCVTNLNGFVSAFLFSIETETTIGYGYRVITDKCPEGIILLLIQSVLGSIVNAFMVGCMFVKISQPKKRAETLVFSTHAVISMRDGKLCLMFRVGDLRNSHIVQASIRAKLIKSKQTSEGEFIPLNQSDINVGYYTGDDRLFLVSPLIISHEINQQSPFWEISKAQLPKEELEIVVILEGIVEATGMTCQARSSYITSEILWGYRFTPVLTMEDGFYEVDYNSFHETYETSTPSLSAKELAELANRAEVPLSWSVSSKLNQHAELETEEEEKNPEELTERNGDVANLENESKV
T1 sequence (P06199 1-466 partner): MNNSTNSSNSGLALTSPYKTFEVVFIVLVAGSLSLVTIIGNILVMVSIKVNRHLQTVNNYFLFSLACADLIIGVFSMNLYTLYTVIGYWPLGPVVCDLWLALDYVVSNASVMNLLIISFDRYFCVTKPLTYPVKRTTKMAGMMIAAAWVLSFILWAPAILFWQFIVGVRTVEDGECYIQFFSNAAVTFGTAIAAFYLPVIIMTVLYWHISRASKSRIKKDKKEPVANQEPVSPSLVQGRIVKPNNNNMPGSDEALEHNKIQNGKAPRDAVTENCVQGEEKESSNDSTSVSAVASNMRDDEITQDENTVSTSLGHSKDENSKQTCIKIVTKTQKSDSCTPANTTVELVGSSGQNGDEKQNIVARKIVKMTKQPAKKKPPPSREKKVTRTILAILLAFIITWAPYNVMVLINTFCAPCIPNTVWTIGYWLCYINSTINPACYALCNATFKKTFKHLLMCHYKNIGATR
Description: (§1) The mouse Kir3.2d isoform was subjected to functional analyses. The amino acid numbers correspond to the longest mouse Kir3.2 isoform. Point mutations were introduced using the QuikChange site-directed mutagenesis kit (Stratagene, La Jolla, CA), and the presence of the mutations was confirmed by direct DNA sequencing. The care of Xenopus laevis was in accordance with the guideline of the Institute of Experimental Animal Sciences, Osaka University. The protocol was approved by the Animal Experiment Committee of Osaka University. The frogs were deeply anesthetized by immersing in 0.2% tricaine methanesulfonate for 20 min at 18°C. A portion of an ovary lobe was surgically removed and incubated with collagenase to remove follicular cells. The oocytes were injected with the cRNAs of Kir3.2 and porcine m2-muscarinic receptor (m2R), and maintained in modified Barth’s solution at 18°C with daily solution changes. Electrophysiological studies were undertaken 48–72 h later at room temperature (20–25°C). Two-electrode voltage-clamp recordings from oocytes were performed using a GeneClamp 500B amplifier (Axon Instruments, Sunnyvale, CA). […] The bath solution contained 40 mM KCl, 50 mM NaCl, 3 mM MgCl2, 0.15 mM niflumic acid, and 5 mM HEPES-KOH (pH 7.4). The currents were recorded in the absence or presence of various concentrations of acetylcholine (ACh). Ba^2+ (3 mM) was added at the end of the recording to estimate the endogenous leak current. The data are expressed as mean values ± standard error of the mean. For the quantitative estimation of ACh-dependent current responses of the wild-type (WT) and mutant channels, the current amplitudes at the end of test pulses at each ACh concentration ([ACh]) were fitted using the following equation:
(§2) I=min+[(max−min)/(1+(EC50/[ACh])^nH)]
(§3) where I is the current amplitude measured at the [ACh], n H is the Hill coefficient, and EC50 is the concentration that induces 50% of the maximal response. […] The values of n H and EC50 were calculated using a non-linear least-squares best fit (SigmaPlot 9; Systat Software). Statistical analyses were performed by one-way ANOVA with post-hoc tests.

Kir3.2 E236S = target: T2, Kir3.2 E236S (Mus musculus, UniProt P48542, E236S); settings: Kir3.2 E236S with porcine m2R in Xenopus oocytes; −120 mV; Hill equation fit
T2 sequence (P48542 19-425 E236S): T1 sequence (P48542 19-425 E236Q) with Q218S
T2 sequence (P06199 1-466 partner): T1 sequence (P06199 1-466 partner)
Description: as §1, §2, §3

Kir3.2 M313R = target: T3, Kir3.2 M313R (Mus musculus, UniProt P48542, I313R); settings: Kir3.2 M313R with porcine m2R in Xenopus oocytes; −120 mV; Hill equation fit, min not zero
T3 sequence (P48542 19-425 I313R): T1 sequence (P48542 19-425 E236Q) with Q218E, I295R
T3 sequence (P06199 1-466 partner): T1 sequence (P06199 1-466 partner)
Description: as §1, §2, §3

CC(=O)OCC[N+](C)(C)C [ACh, acetylcholine]
Hill coefficient (Kir3.2 E236Q): 0.75 ± 0.02 | Hill coefficient (Kir3.2 E236S): 0.86 ± 0.07 | Hill coefficient (Kir3.2 M313R): 0.52 ± 0.08
